Reference: patent US5605929A, “Methods and compositions for inhibiting 5α-reductase activity” (priority 1995, dated 1997)
Like-named read-outs stand apart in the source and are kept apart here. Values belong to the compound of their own block, whether it stands above or below them.

What was measured:
5α-reductase = experiment: Catechin gallates in rat liver microsomes or cells expressing type 1 or type 2 5α-reductase; assay type: biochemical; settings: for inhibitory activity: vs catechin gallate
[1] = molecular target: T1, 5α-Reductase of Rat Liver Microsomes (Rattus norvegicus, UniProt P24008); settings: for stimulation or inhibition of [^3 H]4-MA binding: 40 μM
T1 sequence (P24008 1-259): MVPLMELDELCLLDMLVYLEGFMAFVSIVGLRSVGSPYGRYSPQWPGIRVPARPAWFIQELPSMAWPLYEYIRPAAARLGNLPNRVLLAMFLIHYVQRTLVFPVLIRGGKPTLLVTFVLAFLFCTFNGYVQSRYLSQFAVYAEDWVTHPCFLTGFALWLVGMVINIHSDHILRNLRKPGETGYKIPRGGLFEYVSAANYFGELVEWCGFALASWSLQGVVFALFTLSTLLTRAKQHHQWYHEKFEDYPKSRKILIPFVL

[2] = molecular target: T1, 5α-Reductase of Rat Liver Microsomes; experiment: biochemical; settings: for activation at 200 µM: 1 h, read-out: stimulation of [^3 H]4-MA binding
microsomal 5α-reductase = molecular target: T2, microsomal 5α-reductase (Rattus norvegicus, UniProt P24008); experiment: Enzymatic assay of microsomal 5α-reductase (testosterone to 5α-DHT); assay type: biochemical; settings: prostate or liver microsomes
T2 construct: from the livers of adult Sprague-Dawley female rats; from tissue; host or cells: liver microsomes of adult female Sprague-Dawley rats
T2 sequence (P24008 1-259): T1 sequence (P24008 1-259)
Experimental: Microsomes were prepared at 4° C. from a buffered 0.32M-sucrose homogenate of human liver and from the livers of adult Sprague-Dawley female rats by differential centrifugation as described previously (Liang et al., 1990), and were used in the assay of 5α-reductase activity. In some experiments, microsomes were solubilized with 0.1% polyoxyethylene ether W-1 as described previously (Liang et al., 1990), except for the substitution of polyoxyethylene ether W-1 for Lubrol-WX.

hamster flank organ = experiment: Flank organ, castrated immature male hamsters, topical treatment; assay type: in vivo, Syrian golden hamster; settings: for Pigmented macule Right (+T): T alone 49.6 ± 8.3; for Pigmented macule Left: Table 5, fatty acid 1 mg without T; for inhibition of T-induced growth of pigmented macule: hamster, in vivo
Experimental: One to two weeks after castration, the hair on the lower back of each animal was clipped with an electric hair clipper and then shaved weekly to expose the flank organs. The animals were divided into 5 animals/treatment group. A treatment solution (5 μl) was applied topically to the right flank organ once a day using a Pipetteman and a polypropylene disposable tip. Unless specified the left flank organ was not treated. The treatment solution contained either (a) ethanol alone (vehicle and control), (b) an androgen (T or 5α-DHT), (c) a fatty acid, or (d) a combination of an androgen and a fatty acid. The flank organ was wiped with an alcohol pad to remove residual compound before each treatment. […] The flank organs, both the treated and untreated sides, were evaluated with methods to be described below to determine the effect of these treatments of the growth of the pigmented macules and the sebaceous glands. The body weight of each animal was recorded before and after treatment.
The data are presented as mean ± standard deviation. […]

[3] = molecular target: T1, 5α-Reductase of Rat Liver Microsomes; experiment: [3H]4-MA binding assay, rat liver microsomes (tea catechins); settings: concentrations up to 200 μM
Experimental: Microsomes were prepared as described previously (Liang and Liao, 1992) from the liver of adult Sprague-Dawley female rats or Rat-1A cells expressing a specific type of human 5α-reductase. Each study was carried out in duplicate or triplicate which were usually within 10% of each other. Several studies were preformed to assure that the results shown are representative. The data presented was based on the rate of reaction.
[^3 H]4-MA binding assay were described in detail previously (Liang and Liao, 1992; Liang et al., 1983). […] The reaction was started by the addition of 25 μl of microsomes (25 μg protein). After 30-60 min incubation at 0° C., the [^3 H]4-MA bound to microsomes was collected on a Whatman GF/F glass fiber, washed and radioactivity determined (Liang and Liao, 1992).

[4] = read-out: % Inhibition of [^3 H]4-MA binding, Table 1, 10 μM
[5] = read-out: % Inhibition of [^3 H]4-MA binding, Table 1, 40 μM
[6] = read-out: % Inhibition of [^3 H]4-MA binding, Table 1, 200 μM
[7] = read-out: % Inhibition of [^3 H]4-MA binding, Table 2, 5 μM
[8] = read-out: % Inhibition of [^3 H]4-MA binding, Table 2, 10 μM
[9] = read-out: % Inhibition of [^3 H]4-MA binding, Table 2, 40 μM
[10] = read-out: % Inhibition of [^3 H]4-MA binding, Table 2, 200 μM
[11] = Table 5, T 0.5 μg + fatty acid 1 mg
[12] = Table 5, T 0.5 μg + fatty acid 1 mg, 21 days
[13] = read-out: % Inhibition of [^3 H]4-MA binding

Compound: NC(=O)c1cc(O)c(O)c(O)c1 [3,4,5-trihydroxybenzamide]
- inhibitory activity (5α-reductase): not as active as catechin gallate

Compound: CC1=C(/C=C/C(C)=C/C=C/C(C)=C\C(=O)O)C(C)(C)CCC1 [13-cis-retinoic acid]
- inhibitory activity in [^3 H]4-MA binding assay [1]: slightly stimulatory
- stimulation or inhibition of [^3 H]4-MA binding [1]: no stimulation or inhibition
- activation at 200 µM [2]: 58%

Compound: CC1=C(/C=C/C(C)=C/C=C/C(C)=C\CO)C(C)(C)CCC1 [13-cis-retinol]
- inhibitory activity in [^3 H]4-MA binding assay [1]: slightly stimulatory
- stimulation or inhibition of [^3 H]4-MA binding [1]: no stimulation or inhibition
- activation at 200 µM [2]: 58%

Compound: Oc1cc(O)c2c(c1)OC(c1ccc(O)c(O)c1)C(O)C2 (centres unmarked) [Catechin]
- inhibition (5α-reductase; 40 μM): less than 25%

Compound: CC/C=C\C/C=C\C/C=C\C/C=C\C/C=C\C/C=C\CCC(=O)O [Docosahexaenoic acid, cis-4,7,10,13,16,19-docosahexaenoic acid]
- inhibitory activity in [^3 H]4-MA binding assay [1]: potent inhibitor
- IC50 [2]: 47 µM
- inhibition at 10 µM [2, 4]: < 10%
- inhibition at 40 µM [2, 5]: 27 ± 1%
- inhibition at 200 µM [2, 6]: 87 ± 6%
- inhibition at 5 µM [2, 7]: < 10%
- inhibition at 10 µM [2, 8]: 18%
- inhibition at 40 µM [2, 9]: 49%
- inhibition at 200 µM [2, 10]: 86%

Compound: CCCCCCCC/C=C/CCCCCCCC(=O)O [Elaidic acid]
- inhibitory activity in [^3 H]4-MA binding assay [1]: much less inhibitory than their cis isomers
- inhibition at 10 µM [2, 4]: < 10%
- inhibition at 40 µM [2, 5]: < 10%
- inhibition at 200 µM [2, 6]: < 10%
- inhibition at 10 µM [2, 8]: < 10%
- inhibition at 40 µM [2, 9]: < 10%
- inhibition at 200 µM [2, 10]: < 10%
- inhibition in the enzymatic assay (microsomal 5α-reductase): as potent as their cis isomers
- p (significance of inhibition) (hamster flank organ; [11]): N.S.
- Pigmented macule Right (+T) (hamster flank organ; [12]): 47.0 ± 5.9 mm^2
- Pigmented macule Left (hamster flank organ; 21 days): 4.9 ± 1.1 mm^2
- inhibition of T-induced growth of pigmented macule (hamster flank organ): inactive

Compound: CCCCCCCC/C=C\CCCCCCCCCCCC(=O)O [Erucic acid]
- inhibitory activity in [^3 H]4-MA binding assay [1]: inactive
- IC50 [2]: > 200 µM
- inhibition at 40 µM [2, 5]: < 10%
- inhibition at 200 µM [2, 6]: < 10%
- inhibition at 10 µM [2, 8]: < 10%
- inhibition at 40 µM [2, 9]: < 10%
- inhibition at 200 µM [2, 10]: < 10%
- Percent Inhibition (hamster flank organ; [12]): 29%
- Pigmented macule Right (+T) (hamster flank organ; [12]): 35.4 ± 4.6 mm^2
- Pigmented macule Left (hamster flank organ; 21 days): 4.6 ± 1.5 mm^2
- inhibition of T-induced growth of pigmented macule (hamster flank organ): Weak inhibitions

Compound: CCCCC/C=C\C/C=C\C/C=C\CCCCC(=O)OCC(O)CO (centres unmarked) [Monoγ-Linolenin]
- IC50 [1]: 86 µM
- inhibition at 5 µM [2, 7]: < 10%
- inhibition at 10 µM [2, 8]: < 10%
- inhibition at 40 µM [2, 9]: 35%
- inhibition at 200 µM [2, 10]: 87%

- inhibition at 5 µM [2, 13]: < 10%
- inhibition at 10 µM [2, 13]: < 10%
- inhibition at 40 µM [2, 13]: 25 ± 4%
- inhibition at 200 µM [2, 13]: 43 ± 1%
Compound: CCCC/C=C\CCCCCCCC(=O)O [Myristoleic acid]
- % Inhibition of [^3 H]4-MA binding ([1]; Table 2, 10 μM): NA (less than 10% inhibition were considered not active (NA))

Compound: CCCCCCCC/C=C\CCCCCCCCCCCCCC(=O)O [Nervonic acid]
- inhibitory activity in [^3 H]4-MA binding assay [1]: inactive
- IC50 [2]: > 200 µM
- inhibition at 40 µM [2, 5]: < 10%
- inhibition at 200 µM [2, 6]: < 10%
- inhibition at 40 µM [2, 9]: < 10%
- inhibition at 200 µM [2, 10]: < 10%
- p (significance of inhibition) (hamster flank organ; [11]): N.S.
- Pigmented macule Right (+T) (hamster flank organ; [12]): 39.9 ± 5.4 mm^2
- Pigmented macule Left (hamster flank organ; 21 days): 4.0 ± 1.5 mm^2
- inhibition of T-induced growth of pigmented macule (hamster flank organ): no significant inhibition

- inhibitory activity in [^3 H]4-MA binding assay [1]: not active
Compound: CCCCC[C@H](O)/C=C/[C@H]1[C@H](O)CC(=O)[C@@H]1C/C=C\CCCC(=O)O [Prostaglandin E2]

Compound: CCCCC[C@H](O)/C=C/[C@@H]1[C@@H](C/C=C\CCCC(=O)O)[C@@H](O)C[C@H]1O [Prostaglandin F2a]
- inhibitory activity in [^3 H]4-MA binding assay [1]: not active

Compound: C=CCCCCCCCCC(=O)O [Undecylenic acid]
- inhibitory activity in [^3 H]4-MA binding assay [1]: inactive
- % Inhibition of [^3 H]4-MA binding ([1]; Table 2, 40 μM): NA (less than 10% inhibition were considered not active (NA))
- inhibition at 10 µM [2, 13]: < 10%
- inhibition at 40 µM [2, 13]: < 10%
- inhibition at 200 µM [2, 13]: 13 ± 2%
- p (significance of inhibition) (hamster flank organ; [11]): N.S.
- Pigmented macule Right (+T) (hamster flank organ; [12]): 41.7 ± 10.7 mm^2
- Pigmented macule Left (hamster flank organ; 21 days): 4.7 ± 1.2 mm^2
- inhibition of T-induced growth of pigmented macule (hamster flank organ): no significant inhibition

Compound: O=C(O)c1cc(O)c(O)c(O)c1 [gallic acid, reference compound]
- inhibitory activity (5α-reductase): not as active as catechin gallate
- inhibitory activity [3]: not active

Compound: CC/C=C\C/C=C\C/C=C\CCCCCCCC(=O)OC [linolenic acid methyl ester]
- % Inhibition of [^3 H]4-MA binding ([1]; Table 1, 200 μM, 200 µM): 32%

Compound: COC(=O)c1cc(O)c(O)c(O)c1 [methyl gallate]
- inhibitory activity (5α-reductase): not as active as catechin gallate

Compound: CCCCCCCCOC(=O)c1cc(O)c(O)c(O)c1 [n-octyl gallate]
- inhibitory activity (5α-reductase): low inhibitory activity

Compound: CCCOC(=O)c1cc(O)c(O)c(O)c1 [n-propyl gallate]
- inhibitory activity (5α-reductase): not as active as catechin gallate

- inhibitory activity in [^3 H]4-MA binding assay ([1]; 0.2 mM): somewhat active
Compound: CCCCC[C@H](O)/C=C/[C@H]1C=CC(=O)[C@@H]1CCCCCCC(=O)O [prostaglandin A1]

- inhibitory activity in [^3 H]4-MA binding assay ([1]; 0.2 mM): somewhat active
Compound: CCCCC[C@H](O)/C=C/[C@H]1C=CC(=O)[C@@H]1C/C=C\CCCC(=O)O [prostaglandin A2]

- inhibitory activity in [^3 H]4-MA binding assay ([1]; 0.2 mM): somewhat active
Compound: CCCCC[C@H](O)/C=C/C1=C(CCCCCCC(=O)O)C(=O)CC1 [prostaglandin B1]

- inhibitory activity in [^3 H]4-MA binding assay ([1]; 0.2 mM): somewhat active
Compound: CCCCC[C@H](O)/C=C/C1=C(C/C=C\CCCC(=O)O)C(=O)CC1 [prostaglandin B2]

- inhibitory activity in [^3 H]4-MA binding assay ([1]; 0.2 mM): somewhat active
Compound: CCCCC[C@H](O)/C=C/[C@H]1C(=O)C[C@H](O)[C@@H]1C/C=C\CCCC(=O)O [prostaglandin D2]

- inhibitory activity in [^3 H]4-MA binding assay ([1]; 0.2 mM): somewhat active
Compound: CCCCC[C@H](O)/C=C/[C@H]1[C@H](O)CC(=O)[C@@H]1CCCCCCC(=O)O [prostaglandin E1]

- inhibitory activity in [^3 H]4-MA binding assay ([1]; 0.2 mM): somewhat active
Compound: CCCCC[C@H](O)/C=C/[C@@H]1[C@@H](CCCCCCC(=O)O)[C@@H](O)C[C@H]1O [prostaglandin F1a]

Compound: Oc1cccc(O)c1O [pyrogallol]
- inhibitory activity (5α-reductase): not as active as catechin gallate

Compound: CC1=C(/C=C/C(C)=C/C=C/C(C)=C/C=O)C(C)(C)CCC1 [retinal]
- stimulation or inhibition of [^3 H]4-MA binding [1]: no stimulation or inhibition
- activation at 200 µM [2]: 58%

Compound: CC1=C(/C=C/C(C)=C/C=C/C(C)=C/C(=O)O)C(C)(C)CCC1 [retinoic acid]
- inhibitory activity in [^3 H]4-MA binding assay [1]: inactive

- inhibitory activity in [^3 H]4-MA binding assay [1]: slightly stimulatory
Compound: CC1=C(/C=C/C(C)=C/C=C/C(C)=C/CO)C(C)(C)CCC1 [retinol]

Compound: Phosphatidylcholine
- inhibitory activity in [^3 H]4-MA binding assay [1]: slightly stimulatory

- inhibitory activity in [^3 H]4-MA binding assay [1]: inactive
Compound: carotenes

- IC50 [1]: > 200 µM
Compound: di-γ-linolenin
- % Inhibition of [^3 H]4-MA binding ([1]; Table 2, 10 μM): NA (less than 10% inhibition were considered not active (NA))
- % Inhibition of [^3 H]4-MA binding ([1]; Table 2, 40 μM): NA (less than 10% inhibition were considered not active (NA))
- % Inhibition of [^3 H]4-MA binding ([1]; Table 2, 200 μM): NA (less than 10% inhibition were considered not active (NA))

- IC50 [1]: > 200 µM
Compound: heneicosene nitrile

- IC50 [1]: > 200 µM
Compound: methyl docosatetraenoate

- inhibitory activity in [^3 H]4-MA binding assay [1]: slightly stimulatory
Compound: phosphatidyl ethanolamine
